From patent EP1157997A1, “NOVEL DIPEPTIDE COMPOUND AND MEDICINAL USE THEREOF” (JAPAN ENERGY CORPORATION, priority 1999, dated 2001)

Columns and labels:
[1] = in vitro; type: in vitro ADME; conditions: human, plasma
Method: Freezed human plasma (HFFPP100) was used after thawing. Powder of human alpha 1-acid glycoprotein (supplied by SIGMA Co., hereinafter abbreviated to AAG) was dissolved in a phosphate buffer solution (PBS, pH 7.0) to a concentration of 1 mg/ml. Drug solutions were prepared by dissolving the compounds synthesized in Example 1 and Reference Example 1 in dimethylsulfoxide in various concentrations.
The drug solutions (10 µl, each) with different concentrations were added to 990 µl the plasma or AAG solutions prepared above, stirred well and incubated for 18 hours at 37°C to equilibrate binding proteins. All amount of the solution was transferred to Micropartition Devices (Centrifree® , Millipore Co.) and filtered by centrifugation at 1500 x g for 20 minutes (using TOMY CX-210 high-speed cooling centrifugal machine). 200 µl of the filtrate was directly subjected to HPLC (Type: HITACHI D-7000, column: COSMOSIL (4.6* 250 mm, manufactured by Nacalai Tesque Co., Ltd.). The HPLC analysis was carried out by using a 59:41 (v/v) water-acetonitrile mixture containing 0.1% trifluoroacetic acid (TFA) as a mobile phase and measuring absorbance at 210 nm. The quantitative determination of unbound drug concentration was carried out based on the absolute calibration curve method using a calibration line obtained from the analysis of a standard sample which contains the drug at a known concentration. […]

[2] = system: HIV virus (HIV-1 IIIB strain); assay: Anti-HIV activity, cytopathic effect in CEM-SS cells by XTT dyeing, in the presence of 50% human blood serum; type: cell-based; conditions: Human immunodeficiency virus 1, IIIB, in the presence of 50% human blood serums, read-out: IC50 value in an anti-virus test
Method: The anti-HIV activity of the compounds synthesized Examples 1-15 and Reference Examples 1-4 was measured according to the method reported by O. S. Weislow et al. (J. Natl. Cancer Inst. 81, 577-586, 1989) using CEM-SS cells as host cells and HIV virus (HIV-1 IIIB strain) (see T. Mimoto et al., J. Med. Chem., 42, 1789-1802, 1999, etc.).
Specifically, the compounds synthesized Examples 1-15 and Reference Examples 1-5 in various concentrations were added to a culture medium on 96-well microtiter plates. Human blood serum was added to a final concentration of 50%, then HIV infected CEM-SS cells was added, followed by incubation in a CO2 atmosphere at 37°C for 6 days. The cytopathic effect induced by HIV-1 IIIB was measured by tetrazolium dye XTT dyeing method to evaluate the 50% inhibitory concentration (IC50).

SMILES | fraction unbound at 18 h, 1 µM [1] | IC50 [2] [ng/mL]
Cc1ccccc1CNC(=O)[C@H]1N(C(=O)[C@@H](O)[C@H](Cc2ccccc2)NC(=O)c2cccc(O)c2C)CSC1(C)C [Reference Example 1, reference compound] | 0.013 | –
COc1ccc(C[C@H](NC(=O)c2cccc(O)c2C)[C@H](O)C(=O)N2CSC(C)(C)[C@H]2C(=O)NCc2ccccc2C)cc1 [Example 1, (R)-N-(2-methylbenzyl)-3-[(2S,3S)-2-hydroxy-3-(3-hydroxy-2-methylbenzoyl)amino-4-(4-methoxyphenyl)butanoyl]-5,5-dimethyl-1,3-thiazolidine-4-carboxamide] | 0.029 | 6
